Tests used:
[1] = system: L. donovani promastigote forms; test: In vitro activity against extracellular (promastigote) forms; format: cell-based, Leishmania donovani
From the text: (§1) Methodology: Cultures of three Leishmania species, representative of the species causing each of the clinical forms of the disease, were used for these studies. Specifically, strains MCAN/ES/2001/UCM-1 O of L.infantum, isolated and characterised in Madrid from an infected dog; MHOM/BR/1975/M2904 of L.braziliensis, isolated in Brazil in a human case, and LCR-L 133 LRC of L.donovani. isolated in Jerusalem, Israel from a case of kala-azar […] (WHO Technical Reports Series 949. Geneva: WHO. March. The cultures of parasites come from an own collection which was prepared from a biobank project (Biobank and Characterisation Unit of Strains and Species of Trypanosomatids, Responsible for Human, Animal and Plant Pathologies, Cgl-2008-03687-E/Bos.), and are available on request.
(§2) The promastigote forms of the three species studied were cultured in vitro in sterility in single-phase MTL culture medium (Medium Trypanosomes Liquid) made from Hank’s Balanced Salts (Sigma-Aldrich, H6136) enriched with 10% (v/v) of Fetal Bovine Serum (SBF-1) inactivated at 56° C./ 30 minutes. The parasite inoculum to initiate the culture was 5 × 10^4 cells/ml in 5 ml medium in 25 cm^2 Falcon® plastic flasks and kept in an oven at 28° C. The cultures were performed routinely, achieving exponential growth of the flagellates until obtaining the cell mass necessary for the subsequent studies. Both promastigote forms and amastigote forms were used to conduct the assays.
(§3) The promastigote forms of the three Leishmania strains, cultured in the manner described above, were harvested in their exponential growth phase by centrifugation at 400 g for 10 min. The number of parasites was counted in a Neubauer Haemocytometer Counting Chamber and were inoculated in a 24-well plate at a concentration of 5 ×10^4 parasites/well.
(§4) The compounds to be assayed were dissolved in DMSO at a concentration of 0.01% (v/v), concentration at which this solvent is not toxic nor has any effect on the growth of parasites. The compounds were added to the culture medium at final concentrations of 100, 50, 25 and 12.5 µM. […] M. et al. Med. Chem. 2011. 54. 970-979].

[2] = system: L. donovani amastigote forms; test: In vitro activity against intracellular (amastigote) forms in macrophages; format: cell-based, Leishmania donovani
From the text: as §1
(§5) For the study of the in vitro effect on intracellular forms of Leishmania, the experimental model designed by the group of the present inventors was used [Sánchez-Moreno. M. et al. Med. Chem. 2012, 55, 9900-9913; Sánchez-Moreno. M. et al. J. Antimicrob. Chemother. 2012, 67, 387-397]. The macrophages were detached from the culture flask where they were attached by dry blows. To do this, it was incubated in cold for 5 minutes and after that the flask was hit with the palm of the hand until the cells were detached from the flask. Then, they were passed to a 25 ml capacity steriling conical bottom flask (Deltalab) to centrifuge them at 120 g for 5 minutes, removing the supernatant and were counted in Neubauer’s chamber. Cells were suspended in RPMI medium at a concentration of 1×10^4 cells/well, then cultured in 24-well plates into which a 12 mm round slide had previously been placed into each well. For adherence, the cells were left 24 h at 37° C. in 5% CO2. Subsequently, the cells were infected in vitro by placing Leishmania cells at the rate of 10 parasites/macrophage according to [Sánchez-Moreno. M et al. Med. Chem. 2011, 54, 970-979]. […] The products were allowed to act for 72 hours of incubation.
(§6) After that time, the crystals were removed and fixed with methanol on a slide and allowed to dry, after which DPX microscopy mounting medium (Panreac®) was added to it. Once the preparations had been mounted, they were dyed with Giemsa by diluting Azur-Eosin-Methylene Blue solution according to Giemsa DC (Code 251338) with Sorensen buffer (1:10 dilution). The preparations were covered and allowed to colour for 20 minutes, after which they were washed with distilled water and then allowed to drain and dry vertically. Finally, the amastigote forms were counted with the aim of immersion in a total of 200 cells.

[3] = system: L. infantum amastigote forms; test: as above; format: cell-based, Leishmania infantum
From the text: as §1, §5, §6

[4] = Potentiometric titrations, protonation constants; format: physicochemical; conditions: 0.15 M NaCl, 298.1 K
Method: FEM measurements. Potentiometric titrations were conducted at 298.1 ± 0.1 K using 0.15 M NaCl as the support electrolyte. The experimental procedure (burette, potentiometer, cell, stirrer, microcomputer, etc.) has been fully described elsewhere (E. García-Spain, M.-J. Ballester, F. Lloret, J.M. Moratal, J. Faus and A. Bianchi, J. Chem. Soc. Dalton Trans. 1988, 101-104). The FEM data acquisition was performed with the PASAT software (M. Fontanelli and M. Micheloni, Program for the automatic control of the microburette and the acquisition of the electromotor force readings (PASAT). Minutes of the 1st Spanish-Italian Congress of Thermodynamics of Metal Complexes, Peñíscola, Castellón, Spain, 1990). The reference electrode was an Ag/AgCl electrode in saturated KCI solution. The glass electrode was calibrated as a hydrogen ion concentration probe by titration of previously standardised amounts of HCl with CO2 free NaOH solutions and the equivalent point determined by Gran’s method ((a) G. Gran, Analyst 1952, 77, 661 -671; (b) F.J. Rossotti and H. Rossotti, J. Chem. Educ. 1965, 42, 375-378) providing the standard potential, Eº’, and the ionic product of water (pKw = 13.73 (1)).
Hyperquad software was used to calculate protonation and stability constants (P. Gans, A. Sabatini and A. Vacca, Talanta 1996, 43, 1739-1753). The pH range investigated was 2.5-11.0 and the concentration of the ligands varied from 1×10^-3 to 5×10^-3 M. The different titration curves for each system (at least two) were treated as a single set or as separate curves without significant variations in the values of the stability constants. Finally, the data sets were fused and treated simultaneously to give the final protonation constants (Table 1). For compounds 1, 7 and 9, two protonation constants have been detected in the pH range studied with values ranging from 5.51 to 9.68 logarithmic units. For the remaining compounds, three protonation constants have been measured with values ranging from 10.08 to 2.25 logarithmic units. All compounds have charge +1 at the physiological pH value of 7.4.

[5] = system: L. infantum promastigote forms; test: In vitro activity against extracellular (promastigote) forms; format: cell-based, Leishmania infantum
From the text: as §1, §2, §3, §4

[6] = system: L. braziliensis amastigote forms; test: In vitro activity against intracellular (amastigote) forms in macrophages; format: cell-based, Leishmania braziliensis
From the text: as §1, §5, §6

[7] = IC50 of macrophages / IC50 of parasite form

Q: For `CNCCNCc1ccc2ccccc2n1` [Compound 9, 1-{2-quinolyl)-2,5-diazahexane], which “Selectivity Index (SI) L. donvovani Promastigote forms” value [1, 7] is on record?
A: 13

Q: What about the IC50 ([1]; Leishmania donovani, 72 h) of the same molecule?
A: 27.5 ± 0.4 µM

Q: And the “Selectivity Index (SI) L. donvovani Amastigote forms” value [2, 7]?
A: 11

Q: What about the IC50 ([2]; Leishmania donovani, Macrophage, 72 h) of the same molecule?
A: 31.9 ± 1.1 µM

Q: What about the “Selectivity Index (SI) L. infantum Amastigote forms” value [3, 7] of the same molecule?
A: 25

Q: What about the IC50 ([3]; Leishmania infantum, Macrophage, 72 h) of the same molecule?
A: 14.3 ± 0.6 µM

Q: What about the “Log β” value [4] of the same molecule?
A: 15.10(3)

Q: And the “Logarithm of the protonation constant H+L ⇌ HL” value [4]?
A: 9.68(2)

Q: What about the “Logarithm of the protonation constant HL+H ⇌ H2L” value [4] of the same molecule?
A: 5.41(2)

Q: What about the “Selectivity Index (SI) L. infantum Promastigote forms” value [5, 7] of the same molecule?
A: 23

Q: What about the IC50 ([5]; Leishmania infantum, 72 h) of the same molecule?
A: 15.6 ± 0.8 µM

Q: And the “Selectivity Index (SI) L. brazilensis Amastigote forms” value [6, 7]?
A: 13

Q: And the IC50 ([6]; Leishmania braziliensis, Macrophage, 72 h)?
A: 26.5 ± 0.9 µM

— patent US20230346769A1, “USE OF SIMPLE ACYCLIC POLYAMINES FOR THE TREATMENT OF DISEASES CAUSED BY PARASITES OF THE GENUS LEISHMANIA” (Universidad De Granada, priority 2020, published 2023)
